Results from article PMC11477141, “Chemokine Receptor N-Terminus Charge Dictates Reliance on Post-Translational Modifications for Effective Ligand Capture and Following Boosting by Defense Peptides” (International Journal of Molecular Sciences, 2024).
Each block holds one substance with its values, some of them ahead of it. Where no end group is shown, it is not given here.

How the values were obtained:
[1] = molecular target: T1, CCR5 (Homo sapiens, UniProt P51681); test: BRET CAMYEL cAMP sensor assay of ligand-induced Gαi signaling via CCR5; assay type: cell-based; settings: n = 3
T1 construct: expressed in transfected cells; host or cells: CHO-K1, CHO-pgsB618 (GAG-minus), HEK293 WT / DeltaSia / sC
T1 sequence (P51681 whole entry): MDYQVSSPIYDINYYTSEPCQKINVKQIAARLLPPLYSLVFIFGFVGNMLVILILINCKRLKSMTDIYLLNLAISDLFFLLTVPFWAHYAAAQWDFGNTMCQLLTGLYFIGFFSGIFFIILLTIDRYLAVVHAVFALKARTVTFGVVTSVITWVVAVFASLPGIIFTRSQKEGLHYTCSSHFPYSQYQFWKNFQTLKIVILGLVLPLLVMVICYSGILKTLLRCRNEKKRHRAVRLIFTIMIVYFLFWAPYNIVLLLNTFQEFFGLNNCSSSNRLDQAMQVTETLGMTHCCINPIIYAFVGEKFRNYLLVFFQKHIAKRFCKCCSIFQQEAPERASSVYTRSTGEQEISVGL
Description: For quantification of signaling initiated immediate downstream of receptor activation, we used the cAMP binding CAMYEL sensor to perform bioluminescence resonance energy transfer (BRET)-based assays. Shortly, in this assay increased receptor activation leads to an increase in BRET ratio. For detailed information see the Materials and Methods section.
In signaling assays testing the boosting ability of basic peptides, transfected cells were aliquoted into 96-well plates in the presence of 10 µM peptide or PBS vehicle. After R-Luc substrate addition, chemokines were added to reach final concentrations ranging from 0–100 nM (0, 0.1, 1, 10, and 100 nM) and forskolin was applied before reading emission at 475 and 525 nm.
BRET measurements of Gαi signaling and β-arrestin recruitment: Cells were seeded in 6-well plates (500,000 cells/well) and transiently transfected the following day. For BRET measurements of Gαi signaling, cells were transfected with vectors encoding the human chemokine receptors as indicated (160 ng/well) and the CAMYEL sensor (cAMP sensor, YFP-Epac-RLuc) (840 ng/well) using Lipofectamine (6 µL/well). Briefly, DNA was dissolved in 125 µL OPTI-MEM and Lipofectamine was dissolved in 125 µL OPTI-MEM. The DNA and Lipofectamine solutions were combined into a transfection mixture. The transfection mixture was added dropwise to cells incubated in OPTI-MEM (1 mL/well). Transfections were terminated after 5 h by adding 1 mL of fresh culture medium on top of the OPTI-MEM. The following day the cells were loosened from the plates in PBS with 5 mM glucose and subsequently aliquoted in white 96-well iso plates (~25,000 cells/well). When using C21TP variants and defense peptides (hBD2 and histatin), these were added to a final concentration of 10 μM/well, while an equal amount of PBS was added to control cells. The bioluminescence substrate coelenterazine was added to a final conc. of 5 µM. After 10 min, varying ligand concentrations were added. For BRET measurements of Gαi signaling, forskolin was added 5 min after the addition of the ligand, to a final conc. of 5 µM. The plates were kept in the dark at all times. A Perkin Elmer Envision machine was used for measuring the emission signals at 530 and 480 nm. The BRET signal is determined as the ratio eYFP (530 nm)/Rluc (480 nm).
BRET principle with CAMYEL: For quantification of signaling initiated immediately downstream of receptor activation, we used the cAMP binding CAMYEL sensor to perform bioluminescence resonance energy transfer (BRET) based assays. In this assay we measure changes in intracellular cAMP levels in response to receptor activation. Activation of chemokine receptors lead to a decrease in cAMP through inhibition of adenylate cyclase (AC). In the current setup we initially add forskolin that stimulates AC directly to induce an increase in intracellular cAMP, and we then measure the ability of a ligand (chemokine) to counteract the forskolin-induced increase in cAMP. The cAMP sensor (CAMYEL cAMP sensor, YFP-Epac-RLuc) carries the donor Renilla luciferase (Rluc) and the acceptor YFP. Coelenterazine is a substrate for Rluc that will emit light at around 475 nm upon enzymatic cleavage catalyzed by Rluc. When Rluc and YFP are in close proximity, the energy from the emitted light from coelenterazine can be transferred to YFP, resulting in an excitation of YFP, leading to a BRET signal around 525 nm. EPAC is a cAMP binding protein that changes conformation upon cAMP binding. During low cAMP concentrations, Rluc and YFP are near each other, and a strong BRET signal at 525 nm is obtained. When cAMP levels increase, cAMP will bind to EPAC, creating a conformational change, separating Rluc and YFP, reducing the BRET ratio, and increasing the emission from Rluc at 475 nm. Thus, by measuring the ratio between the cAMP-bound (475 nm) and the cAMP-free (525 nm) state of CAMYEL we obtain a measure of receptor activation. […]

[2] = tested on: Y10A-CCR5; test: BRET CAMYEL Gαi signaling via Y10A-CCR5; assay type: cell-based, human; settings: CHO cells, n = 3
Description: (§1) BRET measurements of Gαi signaling and β-arrestin recruitment: Cells were seeded in 6-well plates (500,000 cells/well) and transiently transfected the following day. For BRET measurements of Gαi signaling, cells were transfected with vectors encoding the human chemokine receptors as indicated (160 ng/well) and the CAMYEL sensor (cAMP sensor, YFP-Epac-RLuc) (840 ng/well) using Lipofectamine (6 µL/well). Briefly, DNA was dissolved in 125 µL OPTI-MEM and Lipofectamine was dissolved in 125 µL OPTI-MEM. The DNA and Lipofectamine solutions were combined into a transfection mixture. The transfection mixture was added dropwise to cells incubated in OPTI-MEM (1 mL/well). Transfections were terminated after 5 h by adding 1 mL of fresh culture medium on top of the OPTI-MEM. The following day the cells were loosened from the plates in PBS with 5 mM glucose and subsequently aliquoted in white 96-well iso plates (~25,000 cells/well). […] The BRET signal is determined as the ratio eYFP (530 nm)/Rluc (480 nm).
(§2) BRET principle with CAMYEL: For quantification of signaling initiated immediately downstream of receptor activation, we used the cAMP binding CAMYEL sensor to perform bioluminescence resonance energy transfer (BRET) based assays. […] The BRET ratio is determined as the ratio between YFP/Rluc, and an increase in BRET ratio indicates a decrease in cAMP and thus increased chemokine receptor activation. […]

[3] = tested on: Y14Y15AA-CCR5; test: BRET CAMYEL Gαi signaling via Y14Y15AA-CCR5; assay type: cell-based, human; settings: CHO cells, n = 3
Description: as §1, §2

[4] = tested on: S6S7AA-CCR5; test: BRET CAMYEL Gαi signaling via S6S7AA-CCR5; assay type: cell-based, human; settings: CHO cells, n = 3
Description: as §1, §2

[5] = tested on: T16S17AA-CCR5; test: BRET CAMYEL Gαi signaling via T16S17AA-CCR5; assay type: cell-based, human; settings: CHO cells, n = 3
Description: as §1, §2

[6] = tested on: S6S7T16S17AAAA-CCR5; test: BRET CAMYEL Gαi signaling via S6S7T16S17AAAA-CCR5; assay type: cell-based, human; settings: CHO cells, n = 3
Description: as §1, §2

[7] = CHO-K1 cells, 10 µM peptide, chemokine 0-100 nM
[8] = HEK293 WT, DeltaSia and sC cells, 10 µM peptide
[9] = M1-tagged CCR5, HEK293 WT, DeltaSia and sC cells, 10 µM peptide

LogEC50 of CCL5-induced Gαi signaling via CCR5 ([1]; CHO GAG-plus (WT CHO-K1) cells, CCL5 alone without peptide): −7.522 ± 0.639
Gαi signaling via CCR5 in DeltaSia cells compared to WT cells ([1]; HEK293 DeltaSia (ST3GAL1/2 KO)): significantly impaired
Gαi signaling via CCR5 in DeltaSia and sC cells ([1]; HEK293 DeltaSia and sC, CCL5 oligomerization variants experiment): very low
Gαi signaling via CCR5 in sC cells compared to WT cells ([1]; HEK293 sC (C1GALT1 KO)): almost abolished
Gαi signaling via M1-CCR5 in DeltaSia and sC cells compared to WT cells ([1]; M1-tagged CCR5, HEK293 DeltaSia and sC): drastically reduced
Substance: CCL5: human chemokine from Peprotech, overall basic
Gαi signaling via Y10A-CCR5 compared to WT-CCR5 [2]: significantly reduced
Gαi signaling via Y14Y15AA-CCR5 compared to WT-CCR5 [3]: completely abolished
Gαi signaling via S6S7AA-CCR5 compared to WT-CCR5 [4]: significantly reduced
Gαi signaling via T16S17AA-CCR5 compared to WT-CCR5 [5]: improved
Gαi signaling via S6S7T16S17AAAA-CCR5 compared to WT-CCR5 [6]: completely abolished

boosting of CCL5 signaling via CCR5 in GAG-plus (WT) and GAG-minus cells ([1]; CHO GAG-plus and CHO GAG-minus (CHO-pgsB618) cells, 10 µM peptide): boosted
boosting of CCL5-induced Gαi signaling via CCR5 [1, 7]: boosted
boosting of CCL8-induced Gαi signaling via CCR5 [1, 7]: boosted
effect on CCL3-induced Gαi signaling via CCR5 [1, 7]: not affected
boosting of signaling by CCL5, E26A and E66A via CCR5 ([1]; HEK293 DeltaSia and sC cells, 10 µM peptide): lost
boosting of CCL3 signaling via CCR5 [1, 8]: absent
boosting of CCL5 signaling via CCR5 [1, 8]: observed in all three cell lines
boosting of CCL8 signaling via CCR5 [1, 8]: absent
boosting of E66A signaling via CCR5 ([1]; HEK293 sC cells, 10 µM peptide): significantly boosted
boosting of CCL3-induced signaling via M1-CCR5 [1, 9]: not boosted
boosting of CCL5-induced signaling via M1-CCR5 [1, 9]: boosted
boosting of CCL8-induced signaling via M1-CCR5 [1, 9]: not boosted
boosting of CCL5 signaling via Y10A receptor variant ([2]; 10 µM peptide): maintained
boosting of CCL5 signaling via Y1415AA receptor variant ([3]; 10 µM peptide): maintained
boosting of CCL5 signaling via S6S7AA receptor variant ([4]; 10 µM peptide): maintained
boosting of CCL5 signaling via T16S17AA receptor variant ([5]; 10 µM peptide): maintained
boosting of CCL5 signaling via S6S7T16S17AAAA receptor variant ([6]; 10 µM peptide): not in S6S7T16S17AAAA
Substance: RKDRGASKTGKKGKGSKGCKRTERSQTPKGP [C21TP^81-111]
boosting of signaling by CCL5, E26A and E66A via CCR5 ([1]; HEK293 WT cells, 10 µM peptide): boosting occurs with all three versions of CCL5
